According to PubChem BioAssay (NCI):
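Results reflect a 48-hour exposure of cells in 96-well plates to compound at five concentrations. The concentration for full growth arrest is given as TGI.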

Legend:
Experiment in all cases: NCI-60 cell line screen, 48 h
HCC-2998 colon = tested on: HCC-2998 colon
MDA-MB-435 = tested on: MDA-MB-435
SK-MEL-2 melanoma = tested on: SK-MEL-2 melanoma
SF-539 CNS = tested on: SF-539 CNS
RXF 393 renal = tested on: RXF 393 renal
MALME-3M melanoma = tested on: MALME-3M melanoma
KM12 colon = tested on: KM12 colon
COLO 205 colon = tested on: COLO 205 colon
NCI-H460 lung = tested on: NCI-H460 lung
CAKI-1 renal = tested on: CAKI-1 renal
EKVX NSCLC = tested on: EKVX NSCLC
IGROV1 ovarian = tested on: IGROV1 ovarian
CCRF-CEM leukemia = tested on: CCRF-CEM leukemia
SNB-19 CNS = tested on: SNB-19 CNS
SK-OV-3 ovarian = tested on: SK-OV-3 ovarian
A498 renal = tested on: A498 renal
U251 CNS = tested on: U251 CNS
OVCAR-4 ovarian = tested on: OVCAR-4 ovarian
SF-295 CNS = tested on: SF-295 CNS
HCT-116 colon = tested on: HCT-116 colon
A549 NSCLC = tested on: A549 NSCLC
SN12C renal = tested on: SN12C renal
PC-3 prostate = tested on: PC-3 prostate
SR leukemia = tested on: SR leukemia
MCF7 breast = tested on: MCF7 breast
HCT-15 colon = tested on: HCT-15 colon
ACHN renal = tested on: ACHN renal
OVCAR-8 ovarian = tested on: OVCAR-8 ovarian
HOP-62 NSCLC = tested on: HOP-62 NSCLC
SK-MEL-5 melanoma = tested on: SK-MEL-5 melanoma
UO-31 renal = tested on: UO-31 renal
DU-145 prostate = tested on: DU-145 prostate
UACC-62 melanoma = tested on: UACC-62 melanoma
NCI-H226 lung = tested on: NCI-H226 lung
NCI-H23 lung = tested on: NCI-H23 lung
M14 melanoma = tested on: M14 melanoma
SF-268 CNS = tested on: SF-268 CNS
MDA-MB-231 breast = tested on: MDA-MB-231 breast
HT29 colon = tested on: HT29 colon
SNB-75 CNS = tested on: SNB-75 CNS
OVCAR-3 ovarian = tested on: OVCAR-3 ovarian
UACC-257 melanoma = tested on: UACC-257 melanoma
T-47D breast = tested on: T-47D breast
BT-549 breast = tested on: BT-549 breast
786-0 renal = tested on: 786-0 renal
TK-10 renal = tested on: TK-10 renal
K-562 leukemia = tested on: K-562 leukemia
NCI/ADR-RES ovarian = tested on: NCI/ADR-RES ovarian
HS 578T breast = tested on: HS 578T breast
MOLT-4 leukemia = tested on: MOLT-4 leukemia
NCI-H522 lung = tested on: NCI-H522 lung
MDA-N = tested on: MDA-N
OVCAR-5 ovarian = tested on: OVCAR-5 ovarian
HL-60(TB) leukemia = tested on: HL-60(TB) leukemia
HOP-92 NSCLC = tested on: HOP-92 NSCLC
SW-620 colon = tested on: SW-620 colon
RPMI-8226 leukemia = tested on: RPMI-8226 leukemia
SK-MEL-28 melanoma = tested on: SK-MEL-28 melanoma

Compound: O=C(/C=C(\O)c1ccc(Cl)cc1)C(=O)NN=C(c1ccccc1)c1ccccc1
- TGI (HCC-2998 colon): > 100 µM
- TGI (MDA-MB-435): > 100 µM
- TGI (SK-MEL-2 melanoma): > 100 µM
- TGI (SF-539 CNS): > 100 µM
- TGI (RXF 393 renal): > 100 µM
- TGI (MALME-3M melanoma): > 100 µM
- TGI (KM12 colon): > 100 µM
- TGI (COLO 205 colon): 74.4 µM
- TGI (NCI-H460 lung): 31.3 µM
- TGI (CAKI-1 renal): > 100 µM
- TGI (EKVX NSCLC): > 100 µM
- TGI (IGROV1 ovarian): > 100 µM
- TGI (CCRF-CEM leukemia): 98.5 µM
- TGI (SNB-19 CNS): > 100 µM
- TGI (SK-OV-3 ovarian): > 100 µM
- TGI (A498 renal): 47.2 µM
- TGI (U251 CNS): > 100 µM
- TGI (OVCAR-4 ovarian): > 100 µM
- TGI (SF-295 CNS): > 100 µM
- TGI (HCT-116 colon): > 100 µM
- TGI (A549 NSCLC): > 100 µM
- TGI (SN12C renal): > 100 µM
- TGI (PC-3 prostate): > 100 µM
- TGI (SR leukemia): > 100 µM
- TGI (MCF7 breast): > 100 µM
- TGI (HCT-15 colon): > 100 µM
- TGI (ACHN renal): > 100 µM
- TGI (OVCAR-8 ovarian): 97.6 µM
- TGI (HOP-62 NSCLC): > 100 µM
- TGI (SK-MEL-5 melanoma): > 100 µM
- TGI (UO-31 renal): 90.4 µM
- TGI (DU-145 prostate): > 100 µM
- TGI (UACC-62 melanoma): > 100 µM
- TGI (NCI-H226 lung): > 100 µM
- TGI (NCI-H23 lung): > 100 µM
- TGI (M14 melanoma): > 100 µM
- TGI (SF-268 CNS): > 100 µM
- TGI (MDA-MB-231 breast): 65.1 µM
- TGI (HT29 colon): > 100 µM
- TGI (SNB-75 CNS): > 100 µM
- TGI (OVCAR-3 ovarian): > 100 µM
- TGI (UACC-257 melanoma): > 100 µM
- TGI (T-47D breast): > 100 µM
- TGI (BT-549 breast): > 100 µM
- TGI (786-0 renal): > 100 µM
- TGI (TK-10 renal): > 100 µM
- TGI (K-562 leukemia): > 100 µM
- TGI (NCI/ADR-RES ovarian): 50.3 µM
- TGI (HS 578T breast): 85.3 µM
- TGI (MOLT-4 leukemia): 95.1 µM
- TGI (NCI-H522 lung): 49 µM
- TGI (MDA-N): > 100 µM
- TGI (OVCAR-5 ovarian): > 100 µM

Compound: CC(C)c1nc2c(Cl)c3ncccc3cc2[nH]c1=O
- TGI (MDA-MB-435): > 100 µM
- TGI (SK-MEL-2 melanoma): > 100 µM
- TGI (HL-60(TB) leukemia): > 100 µM
- TGI (SF-539 CNS): > 100 µM
- TGI (RXF 393 renal): > 100 µM
- TGI (MALME-3M melanoma): > 100 µM
- TGI (KM12 colon): > 100 µM
- TGI (COLO 205 colon): > 100 µM
- TGI (NCI-H460 lung): > 100 µM
- TGI (CAKI-1 renal): > 100 µM
- TGI (EKVX NSCLC): > 100 µM
- TGI (IGROV1 ovarian): > 100 µM
- TGI (CCRF-CEM leukemia): > 100 µM
- TGI (SNB-19 CNS): > 100 µM
- TGI (SK-OV-3 ovarian): > 100 µM
- TGI (A498 renal): > 100 µM
- TGI (U251 CNS): > 100 µM
- TGI (OVCAR-4 ovarian): > 100 µM
- TGI (SF-295 CNS): > 100 µM
- TGI (HCT-116 colon): > 100 µM
- TGI (A549 NSCLC): > 100 µM
- TGI (SN12C renal): > 100 µM
- TGI (PC-3 prostate): > 100 µM
- TGI (SR leukemia): > 100 µM
- TGI (MCF7 breast): > 100 µM
- TGI (HCT-15 colon): > 100 µM
- TGI (HOP-92 NSCLC): > 100 µM
- TGI (ACHN renal): > 100 µM
- TGI (OVCAR-8 ovarian): > 100 µM
- TGI (HOP-62 NSCLC): > 100 µM
- TGI (SK-MEL-5 melanoma): > 100 µM
- TGI (UO-31 renal): > 100 µM
- TGI (DU-145 prostate): > 100 µM
- TGI (UACC-62 melanoma): > 100 µM
- TGI (NCI-H226 lung): > 100 µM
- TGI (NCI-H23 lung): > 100 µM
- TGI (M14 melanoma): > 100 µM
- TGI (SW-620 colon): > 100 µM
- TGI (SF-268 CNS): > 100 µM
- TGI (MDA-MB-231 breast): > 100 µM
- TGI (HT29 colon): > 100 µM
- TGI (SNB-75 CNS): > 100 µM
- TGI (OVCAR-3 ovarian): > 100 µM
- TGI (UACC-257 melanoma): > 100 µM
- TGI (T-47D breast): > 100 µM
- TGI (BT-549 breast): > 100 µM
- TGI (RPMI-8226 leukemia): > 100 µM
- TGI (SK-MEL-28 melanoma): > 100 µM
- TGI (786-0 renal): > 100 µM
- TGI (K-562 leukemia): > 100 µM
- TGI (NCI/ADR-RES ovarian): > 100 µM
- TGI (HS 578T breast): > 100 µM
- TGI (MOLT-4 leukemia): > 100 µM
- TGI (NCI-H522 lung): > 100 µM
- TGI (MDA-N): > 100 µM
- TGI (OVCAR-5 ovarian): > 100 µM
